Test results from EP2559433A1, “Composition for lowering blood lipid and elevating high-density lipoprotein and method for manufacturing the same” (Sunway Biotech Co., Ltd., priority 2011, dated 2013).

Experiments:
[1] = system: hamsters feed with high cholesterol diet; assay: Cholesterol parameters in blood of hamsters fed a high cholesterol diet; type: in vivo; design: TC reducing rate / TG reducing rate / LDL-C reducing rate / LDL/HDL reducing rate / MDA reducing rate: concentration or dose not given beside the values; details: for LDL/HDL: ratio of LDL-C to HDL-C; for LDL/HDL / HDL-C content / LDL-C content / MDA content / TC content / TG content: high cholesterol diet hamsters fed for 8 weeks; for HDL-C increasing rate / LDL-C reducing rate / LDL/HDL reducing rate / MDA reducing rate / TC reducing rate / TG reducing rate: relative to HC (high cholesterol diet group), 8 weeks; for HDL-C content: serum high density lipoprotein cholesterol; for LDL-C content: serum low density lipoprotein cholesterol; for MDA content: serum malondialdehyde; for TC content: serum total cholesterol, mean ± spread; for TG content: serum triglyceride
Method: Hereinafter, the composition of the first preferred embodiment is called as monascin (MS for abbreviation), and the amount of the monascin taken by an experimental animal is equivalent to 9.82 mg taken by an adult human per day; the composition of the second preferred embodiment is called as ankaflavin (AF for abbreviation), and the amount of the ankaflavin taken by an experimental animal is equivalent to 1.43 mg taken by an adult human per day; the composition of the third preferred embodiment is called as monascin + ankaflavin (MS+AF for abbreviation), and the amount of the monascin and ankaflavin taken by an experimental animal are equivalent to 9.82 mg and 1.43 mg taken by an adult human per day respectively. Additionally, a composition containing monacolin K is utilized as a comparison group, which is called as MK for abbreviation.
(§1) Firstly, the experiment utilizes hamsters feed with high cholesterol diet as experimental animals, which are then feed with MS, AF, MS+AF, and MK for 8 weeks, and then each of cholesterol parameters in blood of the hamsters are analyzed. The cholesterol parameters include total cholesterol (TC), triglyceride (TG), high density lipoprotein cholesterol (HDL-C), low density lipoprotein cholesterol (LDL-C), ratio of LDL-C to HDL-C, and malondialdehyde (MDA). The amount of the MK taken by the experimental animals is equivalent to 2.89 mg taken by an adult human per day. Additionally, a normal diet group is referred to as NOR, and a high cholesterol diet group is referred to as HC.
Referring to the following table 1 and table 2, wherein the table 1 illustrates the results of the above-mentioned animal experiments, and the table 2 illustrates the reducing rate or the increasing rate of MS, AF, MS+AF, and MK relative to HC. […] In the results of the reducing rate of LDL-C, although the group of MS has the effect almost the same as MK, the groups of AF and MS+AF have the effect of lowering the amount of LDL-C better than the MK group. […]

[2] = system: lipid plaque on arterial vascular walls in the thoracic cavity; assay: Lipid plaque staining in arteries; type: in vivo, hamsters; details: Fig. 11; high cholesterol diet for eight weeks; MK 2.89 mg, MS 9.82 mg, AF 1.43 mg adult human equivalent per day
Method: as §1
Another important indicator for evaluating atherosclerosis is the analysis of lipid plaque staining in arteries, and the results of lipid plaque staining can indicate that whether lipid plaque deposits on arterial vascular walls. Large amounts of lipid with over-oxidation can cause bulk deposition of foam cells, and then the vascular walls lose elasticity and large amounts of lipid plaque are deposited, so as to lead to atherosclerosis. Referring to Fig. 11, which is a diagram of quantitative results of the lipid plaque staining experiment.

cholesterol biosynthesis = assay: Cell experiment on inhibition of cholesterol biosynthesis; type: cell-based; details: Fig. 12; cells treated at the same concentration (100 ppb)
Text: In order to compare the inhibitory effect of cholesterol biosynthesis by monascin, ankaflavin and monacolin K, the present invention applies a cell experiment and treats cells with monascin, ankaflavin and monacolin K with the same concentration (100 ppb) for researching the influence of these ingredients on the cholesterol biosynthesis. Referring to Fig. 12, which is a comparative diagram for the effect of the inhibition of cholesterol by monascin, ankaflavin and monacolin K with the same concentration.

Compound	LDL/HDL [1]	HDL-C increasing rate [1] [%]	LDL-C reducing rate [1] [%]	LDL/HDL reducing rate [1] [%]	MDA reducing rate [1] [%]	TC reducing rate [1] [%]	TG reducing rate [1] [%]	HDL-C content [1] [mg/dL]	LDL-C content [1] [mg/dL]	MDA content [1] [mg/dL]	TC content [1] [mg/dL]	TG content [1] [mg/dL]	amount of lipid plaque [2]	effect of inhibiting the biosynthesis of cholesterol (cholesterol biosynthesis)
C/C=C/C1=CC2=C(CO1)C(=O)[C@]1(C)OC(=O)[C@H](C(=O)CCCCC)[C@H]1C2 [MS, monascin]	0.416 ±0.022	14.1	33.9	26.9	40.1	29.9	63.4	114.2 ± 9.36	45.1 ± 3.36	8.62 ± 1.45	165.8 ± 10.6	82.8 ± 9.0	–	–
CC[C@H](C)C(=O)O[C@H]1C[C@@H](C)C=C2C=C[C@H](C)[C@H](CC[C@@H]3C[C@@H](O)CC(=O)O3)[C@H]21 [MK, monacolin K, reference compound]	0.489 ±0.050	-1.2	34.1	14.1	16.5	19.6	42.1	96.9 ± 8.84	45.0 ± 6.97	10.37 ± 1.73	190.3 ± 25.1	131.1 ± 36.7	can lower the amount of lipid plaque	has the weakest effect
C/C=C/C1=CC2=C(CO1)C(=O)[C@]1(C)OC(=O)[C@H](C(=O)CCCCCCC)[C@H]1C2 [AF, ankaflavin]	0.355 ±0.049	17.3	42.3	37.6	59.6	28.6	58.2	118.6 ± 8.09	39.4 ± 5.80	9.07 ± 1.45	168.9 ± 11.5	94.5 ± 18.0	–	–
